Source: patent US20160002204A1 (Board of Regents, The University of Texas System, priority 2014, published 2016)

Columns and labels:
[1] = test system: A549 cells; test: A549 proliferation (viability) assay, Cell Titer Fluor, 72 hours; type: cell-based; conditions: Homo sapiens
In short: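 Fluorescence read-out (Cell Titer Fluor, 30 min at 37 °C after reagent) after 72 h compound exposure of A549 cells; EC50 by four-parameter logistic curve fit. Cells: 1000/well, RPMI 1640 + 10% dialyzed FBS, 0.5% DMSO final.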

[2] = molecular target: T1, GLS1 (purified recombinant human GAC) (Homo sapiens, UniProt O94925); test: GLS1 enzymatic activity assay (dual-coupled, Amplex UltraRed/resorufin); type: biochemical
T1 sequence (O94925 55-598 isoform O94925-3 limits assumed): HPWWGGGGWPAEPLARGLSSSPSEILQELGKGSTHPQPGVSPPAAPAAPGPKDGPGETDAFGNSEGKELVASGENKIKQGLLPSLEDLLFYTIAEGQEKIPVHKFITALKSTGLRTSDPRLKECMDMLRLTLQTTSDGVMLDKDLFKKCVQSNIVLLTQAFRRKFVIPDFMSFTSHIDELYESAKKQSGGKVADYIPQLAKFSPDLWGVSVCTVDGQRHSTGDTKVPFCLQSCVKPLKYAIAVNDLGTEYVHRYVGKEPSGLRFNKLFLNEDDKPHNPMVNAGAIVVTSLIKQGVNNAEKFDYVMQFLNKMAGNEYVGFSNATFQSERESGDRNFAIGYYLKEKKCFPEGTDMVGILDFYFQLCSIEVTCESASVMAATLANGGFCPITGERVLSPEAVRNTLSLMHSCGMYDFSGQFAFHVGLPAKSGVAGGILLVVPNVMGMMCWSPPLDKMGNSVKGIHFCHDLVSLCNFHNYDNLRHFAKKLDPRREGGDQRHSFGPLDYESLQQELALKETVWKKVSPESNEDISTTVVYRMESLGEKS
In short: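 GAC activity measured by coupling glutamate to glutamate oxidase and HRP, generating resorufin from Amplex UltraRed. Enzyme (2 nM) preincubated with 50 mM potassium phosphate 10 min at room temperature, then inhibitor 10 min; 1 mM glutamine substrate, 1% DMSO. Fluorescence 530/590 nm, kinetic or 20-min endpoint; IC50 from four-parameter logistic fit.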

| Structure (SMILES) | EC50 [1] [nM] | IC50 [2] [nM] |
| --- | --- | --- |
| O=C(Cc1cccc(OC(F)(F)F)c1)Nc1ccn(CCCCn2cc(C(=O)NCc3cccnc3)nn2)c(=O)c1 [Example 69, 1-[4-(2-oxo-4-{2-[3-(trifluoromethoxy)phenyl]acetamido}-1,2-dihydropyridin-1-yl)butyl]-N-(pyridin-3-ylmethyl)-1H-1,2,3-triazole-4-carboxamide] | 500 to 5000 | < 100 |
| Nc1nnc(CCCCn2ccc(NC(=O)Cc3cccc(OC(F)(F)F)c3)nc2=O)s1 [Example 79, N-{1-[4-(5-amino-1,3,4-thiadiazol-2-yl)butyl]-2-oxo-1,2-dihydropyrimidin-4-yl}-2-[3-(trifluoromethoxy)phenyl]acetamide] | 500 to 5000 | 500 to 5000 |
| CC(C)NC(=O)Nc1ccn(CCCCc2ccc(NC(=O)Cc3cccc(OC(F)(F)F)c3)nn2)c(=O)n1 [Example 106, N-{6-[4-(2-oxo-4-{[(propan-2-yl)carbamoyl]amino}-1,2-dihydropyrimidin-1-yl)butyl]pyridazin-3-yl}-2-[3-(trifluoromethoxy)phenyl]acetamide] | 500 to 5000 | 100 to 500 |
| N#CC1CCCN(C(=O)C(=O)Nc2ccn(CCC(F)Cn3cc(C(=O)NCc4cccc(OC(F)(F)F)c4)nn3)c(=O)c2F)C1 (centres unmarked) [Example 420, 1-(4-{4-[2-(3-cyanopiperidin-1-yl)-2-oxoacetamido]-3-fluoro-2-oxo-1,2-dihydropyridin-1-yl}-2-fluorobutyl)-N-{[3-(trifluoromethoxy)phenyl]methyl}-1H-1,2,3-triazole-4-carboxamide] | 500 to 5000 | < 100 |
| Cc1ccc(CNC(=O)c2cn(C[C@@H](F)CCn3ccc(NC(=O)Cc4ccccc4)c(F)c3=O)nn2)cn1 [Example 124, (S)-1-(2-fluoro-4-(3-fluoro-2-oxo-4-(2-phenylacetamido)pyridin-1(2H)-yl)butyl)-N-((6-methylpyridin-3-yl)methyl)-1H-1,2,3-triazole-4-carboxamide] | 500 to 5000 | 100 to 500 |
| O=C(NCc1cccc(OC(F)(F)F)c1)c1cn(CC(F)CCn2ccc(COc3ccccc3F)cc2=O)nn1 (centres unmarked) [Example 473, 1-{2-fluoro-4-[4-(2-fluorophenoxymethyl)-2-oxo-1,2-dihydropyridin-1-yl]butyl}-N-{[3-(trifluoromethoxy)phenyl]methyl}-1H-1,2,3-triazole-4-carboxamide] | 100 to 500 | < 100 |
| CC(C)(C)OC(=O)NCc1cccc(CC(=O)Nc2ccn(CCC(F)Cn3cc(C(=O)NCc4cccc(OC(F)(F)F)c4)nn3)c(=O)c2)c1 (centres unmarked) [Example 222, tert-butyl N-[(3-{[(1-{3-fluoro-4-[4-({[3-(trifluoro-methoxy)phenyl]methyl}carbamoyl)-1H-1,2,3-triazol-1-yl]butyl}-2-oxo-1,2-dihydropyridin-4-yl)carbamoyl]methyl}phenyl)methyl] carbamate] | 100 to 500 | < 100 |
| O=C(NCc1cccc(OC(F)(F)F)c1)c1cn(CC(F)CCn2ccc(COc3cccc(Cl)c3)cc2=O)nn1 (centres unmarked) [Example 475, 1-{4-[4-(3-chlorophenoxymethyl)-2-oxo-1,2-dihydropyridin-1-yl]-2-fluorobutyl}-N-{[3-(trifluoromethoxy)phenyl]methyl}-1H-1,2,3-triazole-4-carboxamide] | 500 to 5000 | < 100 |
| Cc1ccc(CNC(=O)c2cn(CCCCn3ccc(NC(=O)OCc4ccccc4)cc3=O)nn2)cn1 [Example 135, benzyl N-{1-[4-(4-{[(6-methylpyridin-3-yl)methyl]carbamoyl}-1H-1,2,3-triazol-1-yl)butyl]-2-oxo-1,2-dihydropyridin-4-yl}carbamate] | 500 to 5000 | 100 to 500 |

The next lines start with the values.

| EC50 [1] [nM] | IC50 [2] [nM] | Structure (SMILES) |
| --- | --- | --- |
| < 100 | < 100 | O=C(Nc1ccn(CCC(F)Cn2cc(C(=O)NCc3cccc(OC(F)(F)F)c3)nn2)c(=O)c1F)OC1CCC1 (centres unmarked) [Example 376, cyclobutyl N-(3-fluoro-1-{3-fluoro-4-[4-({[3-(trifluoro-methoxy)phenyl]methyl}carbamoyl)-1H-1,2,3-triazol-1-yl]butyl}-2-oxo-1,2-dihydropyridin-4-yl)carbamate] |
| 100 to 500 | < 100 | O=C(Cc1ccccc1F)Nc1ccn(CCCCn2cc(C(=O)NCc3cccc(OC(F)(F)F)c3)nn2)c(=O)c1 [Example 55, 1-(4-{4-[2-(2-fluorophenyl)acetamido]-2-oxo-1,2-dihydropyridin-1-yl}butyl)-N-{[3-(trifluoromethoxy)phenyl]methyl}-1H-1,2,3-triazole-4-carboxamide] |
| < 100 | < 100 | O=C(NCc1cccc(OC(F)(F)F)c1)c1cn(CC(F)CCn2ccc(NC(=O)[C@H](O)c3ccccc3)cc2=O)nn1 (stereo partly drawn) [Example 223, 1-(2-fluoro-4-{4-[(2R)-2-hydroxy-2-phenylacetamido]-2-oxo-1,2-dihydropyridin-1-yl}butyl)-N-{[3-(trifluoromethoxy)phenyl]methyl}-1H-1,2,3-triazole-4-carboxamide] |
| < 100 | < 100 | O=C(CC1CCCCC1)Nc1ccn(CCCCc2nnc(C(=O)NCc3ncccc3F)s2)c(=O)c1 [Example 455, 5-{4-[4-(2-cyclohexylacetamido)-2-oxo-1,2-dihydropyridin-1-yl]butyl}-N-[(3-fluoropyridin-2-yl)methyl]-1,3,4-thiadiazole-2-carboxamide] |
| 100 to 500 | < 100 | CC(C)(C)OC(=O)Nc1ccn(CCCCn2cc(C(=O)NCc3cccc(C(F)(F)F)c3)nn2)c(=O)c1 [Example 139, tert-butyl N-(2-oxo-1-{4-[4-({[3-(trifluoromethyl)phenyl]methyl}carbamoyl)-1H-1,2,3-triazol-1-yl]butyl}-1,2-dihydropyridin-4-yl)carbamate] |
| 100 to 500 | < 100 | CO[C@H](C(=O)Nc1ccn(CCC(F)Cn2cc(C(=O)NCc3ccc(C)nc3)nn2)c(=O)c1F)c1ccccc1 (stereo partly drawn) [Example 312, 1-(2-fluoro-4-{3-fluoro-4-[(2S)-2-methoxy-2-phenylacetamido]-2-oxo-1,2-dihydropyridin-1-yl}butyl)-N-[(6-methylpyridin-3-yl)methyl]-1H-1,2,3-triazole-4-carboxamide] |
| < 100 | < 100 | Cc1ccc(CNC(=O)c2nnc(CCCCn3ccc(NC(=O)Cc4cccc(OC(F)(F)F)c4)cc3=O)s2)cn1 [Example 442, N-[(6-methylpyridin-3-yl)methyl]-5-[4-(2-oxo-4-{2-[3-(trifluoromethoxy)phenyl]acetamido}-1,2-dihydropyridin-1-yl)butyl]-1,3,4-thiadiazole-2-carboxamide] |
| < 100 | < 100 | O=C(Nc1ccn(CCC(F)Cn2cc(C(=O)NCc3cncc(C(F)(F)F)c3)nn2)c(=O)c1F)OC1CCC1 (centres unmarked) [Example 398, cyclobutyl N-(3-fluoro-1-{3-fluoro-4-[4-({[5-(trifluoromethyl)pyridin-3-yl]methyl}carbamoyl)-1H-1,2,3-triazol-1-yl]butyl}-2-oxo-1,2-dihydropyridin-4-yl)carbamate] |
| 100 to 500 | < 100 | O=C(NCc1cc(C(F)(F)F)ccn1)c1cn(CC(F)CCn2ccc(COc3cccc(OC(F)(F)F)c3)cc2=O)nn1 (centres unmarked) [Example 483, 1-(2-fluoro-4-{2-oxo-4-[3-(trifluoromethoxy)phenoxymethyl]-1,2-dihydropyridin-1-yl}butyl)-N-{[4-(trifluoromethyl)pyridin-2-yl]methyl}-1H-1,2,3-triazole-4-carboxamide] |
| 100 to 500 | < 100 | O=C(Cc1ccccc1)Nc1ccn(CCC(F)Cn2cc(C(=O)NCc3ccc(C(F)(F)F)nc3)nn2)c(=O)c1F (centres unmarked) [Example 367, 1-{2-fluoro-4-[3-fluoro-2-oxo-4-(2-phenylacetamido)-1,2-dihydropyridin-1-yl]butyl}-N-{[6-(trifluoromethyl)pyridin-3-yl]methyl}-1H-1,2,3-triazole-4-carboxamide] |
| 100 to 500 | < 100 | O=C(Cc1cccc(N2CCOCC2)c1)Nc1ccn(CCC(F)Cn2cc(C(=O)NCc3cccc(OC(F)(F)F)c3)nn2)c(=O)c1 (centres unmarked) [Example 237, 1-[2-fluoro-4-(4-{2-[3-(morpholin-4-yl)phenyl]acetamido}-2-oxo-1,2-dihydropyridin-1-yl)butyl]-N-{[3-(trifluoromethoxy)phenyl]methyl}-1H-1,2,3-triazole-4-carboxamide] |
| < 100 | < 100 | O=C(Cc1ccccc1)Nc1ccn(CCC(F)Cn2cc(C(=O)NCc3cc(C(F)(F)F)ccn3)nn2)c(=O)c1F (centres unmarked) [Example 323, 1-{2-fluoro-4-[3-fluoro-2-oxo-4-(2-phenylacetamido)-1,2-dihydropyridin-1-yl]butyl}-N-{[4-(trifluoromethyl)pyridin-2-yl]methyl}-1H-1,2,3-triazole-4-carboxamide] |
| < 100 | < 100 | Cc1ccc(CNC(=O)c2cn(CC(F)CCn3ccc(NC(=O)CC4CCCCC4)c(F)c3=O)nn2)cn1 (centres unmarked) [Example 266, 1-{4-[4-(2-cyclohexylacetamido)-3-fluoro-2-oxo-1,2-dihydropyridin-1-yl]-2-fluorobutyl}-N-[(6-methylpyridin-3-yl)methyl]-1H-1,2,3-triazole-4-carboxamide] |
